The values below come from US6693123B2 (University of Pittsburgh, priority 1995, dated 2004).

Structures can show the parent of a compound that is named as a salt. Bounds are passed on as bounds.

The target in the first experiment is T1, Rat brain protein farnesyltransferase (Rattus norvegicus, UniProt Q02293+Q04631).
T1 construct: The enzyme is purified according to Reiss, Y., et al., Cell, 62: 81-88 (1990), utilizing steps one through three; from tissue; host or cells: rat brain
Put plainly: In vitro inhibition of protein farnesyltransferase, Amersham scintillation proximity assay with biotin-K Ras B fragment. It is filed as biochemical. The note with it: Inhibition of farnesyltransferase; compound at 1 × 10^−5 M (Table 1).
`CSCC[C@H](NC(=O)c1ccc(NCc2cnc(-c3ccccc3)[nH]2)cc1-c1ccccc1)C(=O)O` [Example 382, 4-[N-(1-H-2-Phenylimidazole-4-yl)methylamino-2-phenylbenzoyl]-methionine] registered an inhibition at 10 µM of more than 50%.

Regarding `CSCC[C@H](NC(=O)c1ccc(NCc2nc[nH]c2C)cc1-c1ccccc1)C(=O)O` [Example 383, 4-[N-(5-Methyl-1-H-imidazole-4-yl)-methylene-(amino-2-phenylbenzol)]methionine], the inhibition at 10 µM was more than 50%.

On to `CC(C)C[C@H](NC(=O)c1ccc(NCc2c[nH]cn2)cc1-c1ccccc1)C(=O)O` [Example 387, 4-[N-(1H-Imidazol-4-yl)methylamino-2-phenylbenzoyl]leucine], for which the inhibition at 10 µM was more than 50%.

In the case of `CC(C)C[C@H](NC(=O)c1ccc(NCc2cnc[nH]2)cc1-c1cccc2ccccc12)C(=O)O` [Example 388, 4-[N-(1H-Imidazol-4-yl)methylamino-2-(1-naphthyl)benzoyl]leucine], the inhibition at 10 µM is more than 50%.

Molecule `CC(C)C[C@H](NC(=O)c1ccc(NCc2cccnc2)cc1-c1ccccc1)C(=O)O` [Example 390, 5-[N-(3-Pyridinyl)methylamino-2-phenylbenzoyl]leucine] yielded an inhibition at 10 µM of more than 50%.

Staying with this experiment, now noted: Inhibition of farnesyltransferase; compound at 1 × 10^−6 M (Table 2).
With `CSCC[C@H](NC(=O)c1ccc(COc2cccnc2)cc1-c1ccccc1)C(=O)OCc1oc(=O)oc1C` [Example 326, [4-(3-Pyridyloxymethyl)-2-phenylbenzoyl]methionine O-Dimethylvinylene Carbonate Ester], the “% inhibition at 1 × 10^−6 M” value stood at 91%.

In the case of `CSCC[C@H](NC(=O)c1ccc(NC(=O)c2cnccc2C(F)(F)F)cc1-c1ccccc1C)C(=O)[O-].[Li+]` [Example 481, N-[4-N-(4-Trifluoromethylnicotinoyl)amino-2-(2-methylphenyl)benzoyl]methionine Lithium Salt], the “% inhibition at 1 × 10^−6 M” value is recorded as 95%.

Staying with this experiment, now noted: Inhibition of farnesyltransferase; compound at 1 × 10^−6 M (Table 2); read-out: % inhibition at 1 × 10^−6 M.
As to `CSCC[C@H](NC(=O)c1ccc(CCc2c[nH]cn2)cc1-c1ccccc1)C(=O)O` [Example 329, {4-[2-(1H-Imidazol-4-yl)ethyl]-2-phenylbenzoyl}methionine], the inhibition at 1 µM was found to be 98%.

For the molecule `CSCC[C@H](NC(=O)c1ccc(CSCc2c[nH]cn2)cc1-c1ccccc1C)C(=O)O` [Example 331, [4-(1H-Imidazol-4-ylmethylthiomethyl)-2-(2-methylphenyl)benzoyl]methionine], the inhibition at 1 µM came to 98%.

`CSCC[C@H](NC(=O)c1ccc(CNC(=O)c2cn(C)cn2)cc1-c1ccccc1)C(=O)O` [Example 332, [4-(1H-1-Methylimidazol-4-ylcarbonylaminomethyl)-2-phenylbenzoyl]methionine]: the inhibition at 1 µM came to 26%.

As for `CSCC[C@H](NC(=O)c1cc(-c2ccc(C)cc2)c(COc2cccnc2)cc1-c1ccccc1C)C(=O)O` [Example 343], the inhibition at 1 µM was 72%.

In the case of `CSCC[C@H](NC(=O)c1cc(Cc2ccccc2)c(COc2cccnc2)cc1-c1ccccc1C)C(=O)O` [Example 344], the inhibition at 1 µM worked out at 95%.

Regarding `CSCC[C@H](NC(=O)c1cc(-c2cc(Cl)cc(Cl)c2)c(COc2cccnc2)cc1-c1ccccc1C)C(=O)O` [Example 345], the inhibition at 1 µM turned out to be 91%.

`CSCC[C@H](NC(=O)c1cc(-c2cccs2)c(COc2cccnc2)cc1-c1ccccc1C)C(=O)O` [Example 346]: the inhibition at 1 µM was 98%.

As for `CSCC[C@H](NC(=O)c1ccc(NCc2ncc[nH]2)cc1-c1ccccc1C)C(=O)O` [Example 386, 4-[N-(1-H-Imidazole-2-yl)methylamino-2-(2-methylphenyl)benzoyl]methionine], the inhibition at 1 µM was more than 50%.

Consider `CSCC[C@H](NC(=O)c1ccc(CN(Cc2ccccc2)c2cccnc2)cc1-c1ccccc1C)C(=O)O` [Example 407, [4-(N-Benzyl-N-3-pyridylaminomethyl)-2-(2-methylphenyl)benzoyl]methionine], for which the inhibition at 1 µM was determined as 98%.

Still in this experiment, the particulars now being: Inhibition of farnesyltransferase; compound at 1 × 10^−7 M (Table 3); read-out: % inhibition at 1 × 10^−7 M.
For the molecule `CSCC[C@H](NC(=O)c1ccc(/C=C/c2cnccc2C2(O)CCCCC2)cc1-c1ccccc1C)C(=O)O` [Example 482, N-[4-(2-(4-Cyclohexan-1-ol-1-yl)-pyrid-3-ylethen-1-yl)-2-(2-methylphenyl)benzoyl]methionine Lithium Salt], the inhibition at 0.1 µM amounted to 96%.

Turning to `CSCC[C@H](NC(=O)c1ccc(/C=C/c2cnccc2C(=O)c2ccccc2)cc1-c1ccccc1C)C(=O)O` [Example 483, N-[4-(2-(4-Benzoyl)pyrid-3-ylethen-1-yl)-2-(2-methylphenyl)benzoyl]methionine Lithium Salt], the inhibition at 0.1 µM was found to be 95%.

As for `CSCC[C@H](NC(=O)c1ccc(/C=C/c2cnccc2C(O)c2ccccc2)cc1-c1ccccc1C)C(=O)O` (stereo partly drawn) [Example 484, N-[4-(2-(4-α-Hydroxybenzyl)pyrid-3-ylethen-1-yl)-2-(2-methylphenyl)benzoyl]methionine Lithium Salt], the inhibition at 0.1 µM stood at 97%.

`CSCC[C@H](NC(=O)c1ccc(CCc2cnccc2C(O)c2ccccc2)cc1-c1ccccc1C)C(=O)O` (stereo partly drawn) [Example 485, N-[4-(2-(4-α-Hydroxybenzyl)pyrid-3-ylethyl)-2-(2-methylphenyl)benzoyl]methionine Lithium Salt]: the inhibition at 0.1 µM was determined as 96%.

Staying with this experiment, now noted: Inhibition of farnesyltransferase; compound at 1 × 10^−8 M (Table 4); read-out: % inhibition at 1 × 10^−8 M.
With `CSCC[C@H](NC(=O)c1ccc(NCc2c[nH]cn2)cc1-c1ccccc1C)C(=O)O` [Example 384, 4-[N-(1-H-Imidazole-4-yl)methylamino-2-(2-methylphenylbenzoyl)]methionine], the inhibition at 0.01 µM is 91%.

In the case of `COc1ccccc1-c1cc(NCc2cnc[nH]2)ccc1C(=O)N[C@@H](CC(C)C)C(=O)O` [Example 397], the inhibition at 0.01 µM came out at 50%.

Turning to `CSCC[C@H](NC(=O)c1ccc(COc2cccnc2)cc1-c1ccccc1)C(=O)NS(=O)(=O)N1CCN(C)CC1` [Example 401, [4-(3-Pyridyloxymethyl)-2-phenylbenzoyl]methionine 4-Methylpiperazinesulfonimide], the inhibition at 0.01 µM is 66%.

`CSCC[C@H](NC(=O)c1ccc(CN(CC2CCCCC2)c2cccnc2)cc1-c1ccccc1C)C(=O)O` [Example 408]: the inhibition at 0.01 µM was more than 95%.

In the case of `CSCC[C@H](NC(=O)c1ccc(CN(Cc2ccccc2)c2cccnc2)cc1-c1ccccc1C(F)(F)F)C(=O)O` [Example 409, [4-(N-Benzyl-N-3-pyridylaminomethyl)-2-(2-trifluoromethylphenyl)benzoyl]methionine], the inhibition at 0.01 µM stood at 84%.

Regarding `CSCC[C@H](NC(=O)c1ccc(CN(Cc2ccccc2)c2cncc(F)c2)cc1-c1ccccc1C)C(=O)O` [Example 410, [4-(N-Benzyl-N-3-(5-fluorolpyridyl)aminomethyl)-2-(2-methylphenyl)benzoyl]methionine], the inhibition at 0.01 µM was found to be 94%.

The same experiment, now with this note: read-out: % inhibition at 1 × 10^−6 M.
`CSCC[C@H](NC(=O)c1cc(I)c(COc2cccnc2)cc1-c1ccccc1C)C(=O)O` [Example 347]: the inhibition at 1 µM was determined as 95%.

As for `CSCC[C@H](NC(=O)Nc1ccc(COc2cccnc2)cc1-c1ccccc1)C(=O)O` [Example 348, [4-(3-Pyridyloxymethyl)-2-(phenyl)phenylaminocarbonyl]methionine], the inhibition at 1 µM stood at 66%.

Turning to `CSCC[C@H](NC(=O)c1ccc(C(=O)N(Cc2ccccc2)c2cccnc2)cc1-c1ccccc1C)C(=O)O` [Example 451, N-[4-(N-3-Pyridyl-N-benzyl)carbonyl-2-(2-methylphenyl)benzoyl]methionine], the inhibition at 1 µM is 85%.
